Results published in paper PMC11032351, “Epigenetic modulation through BET bromodomain inhibitors as a novel therapeutic strategy for progranulin-deficient frontotemporal dementia” (Scientific Reports, 2024).

Tests used:
Type in all cases: binding
[1] = molecular target: T1, Endogenous BRD4 (HEK293T) (Homo sapiens, UniProt O60885); experiment: CoraFluor TR-FRET ligand displacement, endogenous BRD4 in HEK293T lysate; details: with 95% confidence interval, read-out: Endogenous BRD4 (HEK293T), KD,app
T1 construct: target engagement toward endogenous BRD4 derived from cellular lysates of cell types of interest; endogenous in cells; host or cells: HEK293T
Protocol: (§1) A cell pellet from one 15 cm dish (~ 25 M cells) of HEK293T cells, or from one confluent T-75 flask 8330-8 NPC cells (~ 9 M cells), was allowed to thaw on ice and cells were suspended in 400 μL lysis buffer (25 mM HEPES, 150 mM NaCl, 0.2% (v/v) Triton X-100, 0.02% (v/v) TWEEN-20, pH 7.5 supplemented with 2 mM DTT and one Roche cOmplete, Mini, EDTA-free protease inhibitor cocktail tablet (Sigma 11,836,170,001) per 7 mL. Cells were homogenized via passage through a 27.5-gauge needle 5 times, and the resulting mixture was incubated with slow, end-over-end mixing at 4 °C for 15 min. The lysate was clarified via centrifugation at 16,100 × g for 10 min at 4 °C then 800 μL (1:3 dilution) dilution buffer (25 mM HEPES, 150 mM NaCl, 0.005% (v/v) TWEEN-20, pH 7.5) was added and the lysate was re-clarified at 16,100 × g for 10 min at 4 °C. Total protein was quantified via detergent-compatible Bradford assay (ThermoFisher 23,246). The lysate was used fresh or flash-frozen in liquid nitrogen and stored at − 80 °C in single-use aliquots.
(§2) Unless otherwise noted, experiments were performed in white, 384-well microtiter plates (Corning 3572 or PerkinElmer ProxiPlate-384 Plus) in 30 μL or 10 μL assay volume, respectively. TR-FRET measurements were acquired on a Tecan SPARK plate reader with SPARKCONTROL software version V2.1 (Tecan Group Ltd.), with the following settings: 340/50 nm excitation, 490/10 nm (Tb), 520/10 nm (FITC) emission, 100 μs delay, and 400 μs integration. The 490/10 and 520/10 nm emission channels were acquired with a 50% mirror and a dichroic 510 mirror, respectively, using independently optimized detector gain settings unless specified otherwise. The TR-FRET ratio was taken as the 520/490 nm intensity ratio on a per-well basis.
(§3) For the profiling of endogenous BRD4, cell lysates as prepared above were diluted to 0.8 mg/mL total protein in 1:3 lysis buffer:dilution buffer with 0.5 nM rabbit anti-BRD4 antibody (Cell Signaling Technology; E2A7X) and 1 nM CoraFluor-1-labeled anti-rabbit Nano-Secondary (ChromoTek CTK0101). JQ1-FITC was added in serial dilution (cmax = 200 nM) using an HP D300 digital dispenser and allowed to equilibrate for 2 h at room temperature before TR-FRET measurements were taken. Nonspecific signal was determined with 50 μM JQ1-Acid, and data were fitted to a One Site–Specific Binding model in Prism 9. The KD,app determined from the one-site model was then adjusted for a two-site model using Eq. 1.
(§4) The following assay parameters have been used: (i) 4 nM GST-BRD4(BD1), 4 nM CoraFluor-labeled GST VHH, 20 nM JQ1-FITC in assay buffer, (ii) 4 nM GST-BRD4(BD2), 4 nM CoraFluor-labeled GST VHH, 20 nM JQ1-FITC in assay buffer, (iii) HEK293T or NPC cell lysate at 0.8 mg/mL total protein, 1 nM rabbit anti-BRD4 antibody, 2 nM CoraFluor-labeled anti-rabbit Nano-Secondary, 20 nM JQ1-FITC. For all experiments, test compounds were added in serial dilution (cmax = 10 μM) using an HP D300 digital dispenser and allowed to equilibrate for 2 h at room temperature before TR-FRET measurements were taken. The assay floor (background) was defined with the 10 μM mivebresib dose, and the assay ceiling (top) was defined via a no-inhibitor control. Data were fitted to a four-parameter dose–response model in Prism 9.
(§5) For TR-FRET ligand displacement assays with recombinant bromodomains, we have determined the KD of the respective fluorescent tracer (JQ1-FITC) under each assay condition. For endogenous BRD4 in whole cell extract, we have determined the KD,app of JQ1-FITC under each assay condition. Inhibitor KD and KD,app values have been calculated using Cheng-Prusoff principles, outlined in Eq. 2 below:2 KDorKD,app=IC50/1+[S]/KX where IC50 is the measured IC50 value, [S] is the concentration of fluorescent tracer, and KX is the KD or KD,app of the fluorescent tracer for a given condition.

[2] = molecular target: T2, Endogenous BRD4 (NPC) (Homo sapiens, UniProt O60885); experiment: CoraFluor TR-FRET ligand displacement, endogenous BRD4 in NPC lysate; details: with 95% confidence interval, read-out: Endogenous BRD4 (NPC), KD,app
T2 construct: target engagement toward endogenous BRD4 derived from cellular lysates of cell types of interest; endogenous in cells; host or cells: 8330-8 human iPSC-derived neural progenitor cells
Protocol: as §1, §2, §3, §4, §5

[3] = molecular target: T3, Recombinant BRD4(BD1) (Homo sapiens, UniProt O60885); experiment: TR-FRET ligand displacement, recombinant GST-BRD4(BD1); details: for Kd: GST-tagged, with 95% confidence interval
T3 construct: using the recombinant, individually purified bromodomains of BRD4 (GST-tagged BD1 and BD2); purchased BPS Biosciences, Inc 31,040
Protocol: as §2
Assays were performed as described. Recombinant BRD4(BD1) and BRD4(BD2) were purchased from BPS Biosciences, Inc and Epicypher, Inc (GST-BRD4(BD1), 31,040; GST-BRD4(BD2), 15–0013, respectively). Recombinant bromodomains were diluted to 0.5 nM in assay buffer (25 mM HEPES, 150 mM NaCl, 0.5 mg/mL BSA, 0.005% TWEEN-20, pH 7.5) with 2 nM CoraFluor-1-labeled GST VHH (ChromoTek ST-250), then JQ1-FITC was added in serial dilution (cmax = 100 nM) using an HP D300 digital dispenser and allowed to equilibrate for 2 h at room temperature before TR-FRET measurements were taken. Nonspecific signal was determined with 50 μM JQ1-Acid, and data were fitted to a One Site–Specific Binding model in Prism 9. The KD determined from the one-site model was then used in Eq. 1 to adjust for a two-site model due to the dimeric GST protein:1 KD,2-site=KD,1-site×(1+2)
as §4, §5

Row | SMILES | Kd [1] [nM] | Kd [2] [nM] | Kd [3] [nM] | selectivity for BD1 over BD2 ([3]; recombinant BRD4 BD1 vs BD2)
1 | Cn1ccc2c(-c3cccnc3Sc3ccc(F)cc3)c[nH]c2c1=O [Compound 84B, 3-(2-((4-fluorophenyl)thio)pyridin-3-yl)-6-methyl-1,6-dihydro-7H-pyrrolo[2,3-c]pyridin-7-one] | 196 | 195 | 43 | 
2 | Cn1cc(-c2cccnc2Oc2ccc(F)cc2)c2cc[nH]c2c1=O [Compound 18A, 4-(2-(4-fluorophenoxy)pyridin-3-yl)-6-methyl-1H-pyrrolo[2,3-c]pyridin-7(6H)-one] | 44 | 46 | 28 | 
3 | Cn1cc(-c2cccnc2Sc2ccc(F)cc2)c2cc[nH]c2c1=O [Compound 84A, 4-(2-((4-fluorophenyl)thio)pyridin-3-yl)-6-methyl-1,6-dihydro-7H-pyrrolo[2,3-c]pyridin-7-one] | 370 | 378 | 303 | 
4 | Cn1ccc2c(-c3cccnc3Oc3ccc(F)c(F)c3)c[nH]c2c1=O [Compound 81B, 3-(2-(3,4-difluorophenoxy)pyridin-3-yl)-6-methyl-1,6-dihydro-7H-pyrrolo[2,3-c]pyridin-7-one] | 538 | 532 | 126 | 
5 | Cn1ccc2c(-c3cccnc3Oc3ccc(F)cc3)c[nH]c2c1=O [Compound 18B, 3-[2-(4-fluorophenoxy)pyridin-3-yl]-6-methyl-1,6-dihydro-7H-pyrrolo[2,3-c]pyridin-7-one] | 121 | 131 | 46 | 
6 | Cn1cc(-c2cccnc2Oc2ccc(F)c(F)c2)c2cc[nH]c2c1=O [Compound 81A, 4-(2-(3,4-difluorophenoxy)pyridin-3-yl)-6-methyl-1,6-dihydro-7H-pyrrolo[2,3-c]pyridin-7-one] | 30 | 32 | 29 | 
7 | Cn1cc(-c2cccnc2Nc2ccc(F)cc2)c2cc[nH]c2c1=O [Compound 85A, 4-(2-((4-fluorophenyl)amino)pyridin-3-yl)-6-methyl-1,6-dihydro-7H-pyrrolo[2,3-c]pyridin-7-one] | 93 | 100 | 76 | ~ 5.5 fold
8 | Cn1ccc2c(-c3cccnc3Nc3ccc(F)cc3)c[nH]c2c1=O [Compound 85B, 3-(2-((4-fluorophenyl)amino)pyridin-3-yl)-6-methyl-1,6-dihydro-7H-pyrrolo[2,3-c]pyridin-7-one] | 3910 | 3810 | 951 | 
9 | Cn1ccc2c(-c3cc(F)cnc3Oc3ccc(F)cc3)c[nH]c2c1=O [Compound 86B, 3-(5-fluoro-2-(4-fluorophenoxy)pyridin-3-yl)-6-methyl-1,6-dihydro-7H-pyrrolo[2,3-c]pyridin-7-one] | 7150 | 5900 | 2640 | 
10 | Cn1cc(-c2cc(F)cnc2Oc2ccc(F)cc2)c2cc[nH]c2c1=O [Compound 86A, 4-(5-fluoro-2-(4-fluorophenoxy)pyridin-3-yl)-6-methyl-1,6-dihydro-7H-pyrrolo[2,3-c]pyridin-7-one] | 559 | 559 | 168 | 
11 | Cn1cc(-c2cccnc2Oc2cc(F)cc(F)c2)c2cc[nH]c2c1=O [Compound 82A, 4-(2-(3,5-difluorophenoxy)pyridin-3-yl)-6-methyl-1,6-dihydro-7H-pyrrolo[2,3-c]pyridin-7-one] | 49 | 45 | 41 | 
12 | Cn1ccc2c(-c3cccnc3Oc3cc(F)cc(F)c3)c[nH]c2c1=O [Compound 82B, 3-(2-(3,5-difluorophenoxy)pyridin-3-yl)-6-methyl-1,6-dihydro-7H-pyrrolo[2,3-c]pyridin-7-one] | 519 | 430 | 147 | 
